The text below walks through data of paper PMC6797481, “Identification of an allosteric binding site on the human glycine transporter, GlyT2, for bioactive lipid analgesics” (eLife, 2019).

One data set has as its target T1, GlyT2 R439L mutant (Homo sapiens, UniProt Q9Y345, R439L).
T1 construct: expressed in transfected cells; host or cells: Xenopus laevis oocytes (cRNA injection)
T1 sequence (Q9Y345 1-797 R439L): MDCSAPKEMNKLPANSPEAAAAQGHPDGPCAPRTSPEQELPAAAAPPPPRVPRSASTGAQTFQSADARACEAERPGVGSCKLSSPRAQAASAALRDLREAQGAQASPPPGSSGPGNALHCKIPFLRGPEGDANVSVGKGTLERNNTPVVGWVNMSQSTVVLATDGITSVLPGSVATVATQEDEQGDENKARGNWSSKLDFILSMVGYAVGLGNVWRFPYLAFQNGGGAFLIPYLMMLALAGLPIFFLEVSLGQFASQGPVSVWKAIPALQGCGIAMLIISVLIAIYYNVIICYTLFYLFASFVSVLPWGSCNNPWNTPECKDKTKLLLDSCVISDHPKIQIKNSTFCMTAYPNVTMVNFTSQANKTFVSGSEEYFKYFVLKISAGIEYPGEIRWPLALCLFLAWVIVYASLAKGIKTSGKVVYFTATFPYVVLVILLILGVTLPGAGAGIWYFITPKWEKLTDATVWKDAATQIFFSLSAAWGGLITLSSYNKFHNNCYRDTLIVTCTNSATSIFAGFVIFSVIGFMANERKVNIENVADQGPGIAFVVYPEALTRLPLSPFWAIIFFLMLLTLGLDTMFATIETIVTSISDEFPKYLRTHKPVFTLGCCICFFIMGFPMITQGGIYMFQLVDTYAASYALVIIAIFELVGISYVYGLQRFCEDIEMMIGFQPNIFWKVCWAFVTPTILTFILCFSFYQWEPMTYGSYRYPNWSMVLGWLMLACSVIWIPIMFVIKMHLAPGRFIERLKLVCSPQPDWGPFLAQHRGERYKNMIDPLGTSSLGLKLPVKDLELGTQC
As to the kind of experiment: Glycine transport currents, two electrode voltage clamp, oocytes expressing GlyT2 R439L. The class given is cell-based. Here is the method: Glycine was first applied to establish maximal transport current.
Compounds were tested for inhibition of glycine transport on Xenopus laevis oocytes expressing mutant GlyT1 and GlyT2 transporters. n values are in brackets, with measurements taken from at least 2 batches of oocytes.
(In general: Two-electrode voltage clamp is typically applied to oocytes expressing channels or transporters.)

Data set [1] concerns GlyT2 F428A, V432A, Y550L, P561S, W563L and L569F mutants. The experiment in a line: Screen of GlyT2 point mutants for inhibition by 1 µM oleoyl L-carnitine. As to conditions: range over F428A. Format: cell-based, human. From the text: The binding site for the allosteric serotonin reuptake inhibitor, (S)-citalopram, lies in the extracellular facing vestibule of SERT, formed by residues from TM1b, TM6a, TM10, and TM11 ([Coleman et al., 2016]). To determine if bioactive lipids inhibit GlyT2 by binding to this ‘vestibule allosteric site,’ corresponding residues in GlyT2 were mutated to remove potential interactions. OLCarn contains a bulky, zwitterionic head group conjugated to an oleoyl lipid tail, and was used as a screen to test mutant transporters for sensitivity to inhibition. None of the transporters containing mutations in the vestibule allosteric site display any change in inhibition compared to WT (Figure 1a). […] Mutations to GlyT2 residues were made either to resemble GlyT1, or to remove potential interactions with bioactive lipids but not disrupt the overall transport activity, often using substitutions present in the bacterial homologue, LeuT.
Figure 1. Defining the bioactive lipid binding site. (a) Inhibition of GlyT2 by 1 µM oleoyl L-carnitine. Transporters were WT or with mutations to the vestibule allosteric site (VAS) or adjacent to EL4. The reduced glycine transport currents were normalised to the current elicited by glycine alone. Data represented are means ± SEM with ****p<0.001 following a one way ANOVA test. […]

Data set [2] deals with rat model of neuropathic pain. Also noted: method as in Mostyn et al., 2019. Conditions: ref Mostyn et al., 2019; cited from earlier work.
On the set-up of data set [3]: method as in Mostyn et al., 2019. As to conditions: ref Mostyn et al., 2019; cited from earlier work.
On the set-up of data set [4]: method as in Mostyn et al., 2019. As to conditions: ref Mostyn et al., 2019; cited from earlier work. This is another data set of the same source.

Usually EC50 stands for the concentration giving half of the maximal effect. The low end stands for higher potency in that assay, the high end for lower potency in that assay. On GlyT2 R439L mutant (glycine transport, GlyT2 R439L (TM5)), `NCC(=O)O` [Glycine] had an EC50 of 23 ± 4 µM.
For the compound `CCCCCCCC/C=C\CCCCCCCC(=O)O[C@H](CC(=O)[O-])C[N+](C)(C)C` [oleoyl L-Carnitine, reference compound], in data set [1], the “inhibition of glycine transport current” value is given as 14.9–29.0%.
One may read the IC50 as the concentration needed to halve the response being measured. Higher therefore signals a need for much substance. For the compound `CCCCCCCC/C=C\CCCCCCCC(=O)N[C@@H](Cc1c[nH]c2ccccc12)C(=O)O` [oleoyl l-Tryptophan], the IC50 on GlyT2 R439L mutant (GlyT2 R439L, mean (95% CI)) is 0.109 µM. Also, the “% Max. inhibition” value at GlyT2 R439L mutant (GlyT2 R439L, mean ± SEM) is 75.3 ± 4.2 (p=0.1040) %.
As to oleoyl d-Lysine, in data set [2], the analgesia result is reported as “produces analgesia” and the side effects entry is on record as “minimal side effects”. The “blood brain barrier permeability” value in data set [3] is “blood brain barrier permeable”. In addition, the metabolic stability entry in data set [4] is listed as “metabolically stable”.
